The source of these data is patent US6919299B2, “Synergistic herbicidal compositions” (Bayer CropScience GmbH, priority 2001, dated 2005).

Format in all cases: in vivo
One experiment deals with Galium aparine. In words: Outdoor post-emergence herbicidal trial, GALAP. The conditions noted are these: Example B.I, outdoors. Here is the method:
(§1) Outdoors, crop plants were grown on plots of a size of from 5 to 10 m^2 on various soils and under various climatic conditions, and the natural presence of harmful plants and/or their seeds in the soil was utilized for the experiments. The treatment with the compositions according to the invention or the herbicides A and B applied individually was carried out after emergence of the harmful and the crop plants, in general at the 2- to 4-leaf stage. The active compounds or active compound combinations, formulated as WG, WP or EC, were applied by the post-emergence method. After 2 to 8 weeks, visual evaluation was carried out in comparison with an untreated comparative group. […] In addition, the herbicidal activities of the compositions according to the invention exceed the expected values according to Colby.
(§2) If the observed activity values of the mixtures already exceed the formal sum of the values for the trials with individual applications, they also exceed the expected value according to Colby which is calculated using the following formula (cf. S. R. Colby; in Weeds 15 (1967) pp. 20 to 22): E=A+B−(A×B/100)
(§3) The figures denote: • A, B=Activity of components A and B in percent, at a dosage of a and b gram of ai/ha, respectively. • E=Expected value in % at a dosage of a+b gram of ai/ha.

The test system of a further experiment is Papaver rhoeas. Put plainly: Outdoor post-emergence herbicidal trial, PAPRH. Conditions: Example B.I, outdoors. The method, then: as §1, §2, §3
Another experiment has as its system Brassica napus. In words: Outdoor post-emergence herbicidal trial, BRAPP. Conditions: Example B.II, outdoors. The method, then: as §1, §2, §3
Another experiment relates to Setaria faberi. In words: Outdoor post-emergence herbicidal trial, SETFA. Conditions: Example B.II, outdoors. Here is the method:
as §1, §2, §3

In a further experiment the test system is Abutilon theophrasti. Put plainly: Outdoor post-emergence herbicidal trial, ABUTH. The conditions noted are these: outdoors. Here is the method: as §1, §2, §3
The next experiment relates to Echinocloa crus galli. Put plainly: Outdoor post-emergence herbicidal trial, ECHCG. The conditions noted are these: outdoors. Here is the method: as §1, §2, §3
A further experiment deals with Matricaria spec. In words: Outdoor post-emergence herbicidal trial, MATCH. The conditions noted are these: Example B.V, outdoors. The method, then:
as §1, §2, §3

The next experiment has as its system Polygonum convolvulus. In words: Outdoor post-emergence herbicidal trial, POLCO. The conditions noted are these: Example B.V, outdoors. Here is the method: as §1, §2, §3
The test system of a further experiment is Amaranthus retroflexus. Put plainly: Outdoor post-emergence herbicidal trial, AMARE. The conditions noted are these: Example B.VI, outdoors. The method, then:
as §1, §2, §3

The next experiment has as its system Portulaca oleracea. Put plainly: Outdoor post-emergence herbicidal trial, POROL. Conditions: Example B.VI, outdoors. The method, then: as §1, §2, §3
A further experiment deals with Digitaria sanguinalis. Put plainly: Outdoor post-emergence herbicidal trial, DIGSA. The conditions noted are these: Example B.VII, outdoors. Here is the method: as §1, §2, §3
Another experiment relates to Sorghum halepense. Put plainly: Outdoor post-emergence herbicidal trial, SORHA. The conditions noted are these: Example B.VII, outdoors. The method, then:
as §1, §2, §3

[1] abbreviates: Example B.III, B2.2 840 g ai/ha.

As for `CS(=O)(=O)c1ccc(C(=O)C2C(=O)CCCC2=O)c(Cl)c1COCC(F)(F)F` [Component A, 2-[2-chloro-3-(2,2,2-trifluoroethoxymethyl)-4-methylsulfonylbenzoyl]cyclohexane-1,3-dione], the “found (herbicidal activity)” value in the experiment on Galium aparine (A 75 g ai/ha) was found to be 50%; in the experiment with Papaver rhoeas (A 75 g ai/ha), 0%; in the experiment on Brassica napus (A 100 g ai/ha), 68%; with Setaria faberi (A 100 g ai/ha), 65%; in the experiment with Abutilon theophrasti (Example B.III, A 100 g ai/ha) it was 75%; in the experiment on Abutilon theophrasti (Example B.IV, A 100 g ai/ha), 75%. The “found (herbicidal activity)” value in the experiment with Echinocloa crus galli (Example B.III, A 100 g ai/ha) turned out to be 98%; in the experiment on Echinocloa crus galli (Example B.IV, A 100 g ai/ha), 98%; in the experiment with Matricaria spec (A 38 g ai/ha), 45%; with Polygonum convolvulus (A 38 g ai/ha), 50%; with Amaranthus retroflexus (A 75 g ai/ha), 90%; in the experiment with Portulaca oleracea (A 75 g ai/ha) it was 50%. The “found (herbicidal activity)” value stood at 46% in the experiment with Digitaria sanguinalis (A 75 g ai/ha) and 50% in the experiment with Sorghum halepense (A 75 g ai/ha).
Regarding `COc1cc(OC)nc(NC(=O)NS(=O)(=O)c2ncccc2C(=O)N(C)C)n1` [Component B1.9, nicosulfuron], the “found (herbicidal activity)” value in the experiment on Amaranthus retroflexus (B1.9 40 g ai/ha) is given as 90%; in the experiment with Portulaca oleracea (B1.9 40 g ai/ha), 0%; in the experiment with Digitaria sanguinalis (B1.9 40 g ai/ha) it was 50%; in the experiment with Sorghum halepense (B1.9 40 g ai/ha), 62%.
In the case of `CCNc1nc(Cl)nc(NC(C)C)n1` [Component B2.2, atrazine], the “found (herbicidal activity)” value stood at 30% with Galium aparine (B2.2 200 g ai/ha); 60% in the experiment with Papaver rhoeas (B2.2 200 g ai/ha); 0% in the experiment with Brassica napus (B2.2 840 g ai/ha); 5% with Setaria faberi (B2.2 840 g ai/ha); 20% with Abutilon theophrasti (setting [1]); 20% with Abutilon theophrasti (Example B.IV, B2.2 840 g ai/ha). Also, the “found (herbicidal activity)” value worked out at 0% with Echinocloa crus galli (setting [1]) and 0% in the experiment with Echinocloa crus galli (Example B.IV, B2.2 840 g ai/ha).
For the compound `N#Cc1cc(Br)c(O)c(Br)c1` [Component B2.3, bromoxynil], the “found (herbicidal activity)” value in the experiment on Matricaria spec (B2.3 100 g ai/ha) was 55%; in the experiment on Polygonum convolvulus (B2.3 100 g ai/ha) it was 45%.
